SMILES strings stand for the structures.

The subject of data set [1] is A549. Nature of the data set: Antitumor activity against human A549 cells xenografted in nude mouse assessed as relative tumor volume at 3 mg/kg, ig dosed every day relative to initial tumor volume. The class given is functional. In general terms: A xenograft is tissue or cells of one species grown in another, often human tumour cells in immunodeficient mice.
The subject of data set [2] is A549. As to the kind of experiment: Antitumor activity against human A549 cells xenografted in nude mouse assessed as tumor growth inhibition at 3 to 12 mg/kg, ig dosed every day. The class given is functional, organism-based.
Data set [3] concerns Mus musculus. As to the kind of experiment: Toxicity in nude mouse xenografted with human A549 cells assessed as induction of mouse fatality at 3 mg/kg, ig dosed every day. Conditions: in vivo, po. The format is organism-based.
In data set [4] the test system is A549. As to the kind of experiment: Antitumor activity against human A549 cells xenografted in nude mouse assessed as tumor growth inhibition at 6 mg/kg, ig dosed every day. The class given is functional. As to conditions: A549, po, read-out: TGI.
Data set [5] concerns Mus musculus. Nature of the data set: Toxicity in nude mouse xenografted with human A549 cells assessed as change in body weight at 12 mg/kg, ig dosed every day (reference value: 25.8 g). The class given is organism-based. Conditions: in vivo, po.
Data set [6] relates to Mus musculus. Nature of the data set: Toxicity in nude mouse xenografted with human A549 cells assessed as change in body weight at 3 mg/kg, ig dosed every day (reference value: 26.8 g). The class given is organism-based. Conditions: in vivo, po.
In data set [7] the test system is A549. Nature of the data set: Antitumor activity against human A549 cells xenografted in nude mouse assessed as tumor growth inhibition at 3 mg/kg, ig dosed every day. The format is functional. As to conditions: A549, po, read-out: TGI.
Data set [8] concerns Mus musculus. As to the kind of experiment: Toxicity in nude mouse xenografted with human A549 cells assessed as induction of mouse fatality at 12 mg/kg, ig dosed every day. Conditions: in vivo, po. The format is organism-based.
The subject of data set [9] is A549. Nature of the data set: Antitumor activity against human A549 cells xenografted in nude mouse assessed as relative tumor volume at 12 mg/kg, ig dosed every day relative to initial tumor volume. The format is functional.
Data set [10] has as its system A549. As to the kind of experiment: Cytotoxic activity against human A549 cells incubated for 48 hrs by MTT assay. The format is functional, cell-based. As to conditions: A549, 48 h. Background: Tetrazolium dyes change colour on reduction, which living cells bring about.
Data set [11] has as its system A549. As to the kind of experiment: Antitumor activity against human A549 cells xenografted in nude mouse assessed as relative tumor volume at 6 mg/kg, ig dosed every day relative to initial tumor volume. The class given is functional.
A further data set concerns HepG2. Nature of the data set: Cytotoxic activity against human HepG2 cells incubated for 48 hrs by MTT assay. Conditions: HepG2, 48 h. The format is functional, cell-based.
The test system of a further data set is Bel-7402. Nature of the data set: Cytotoxic activity against human Bel7402 cells incubated for 48 hrs by MTT assay. The format is functional, cell-based. Conditions: Bel-7402, 48 h.
The next data set deals with SGC-7901. As to the kind of experiment: Cytotoxic activity against human SGC7901 cells incubated for 48 hrs by MTT assay. The format is functional, cell-based. As to conditions: SGC-7901, 48 h.
Data set [12] deals with Mus musculus. As to the kind of experiment: Toxicity in nude mouse xenografted with human A549 cells assessed as induction of mouse fatality at 6 mg/kg, ig dosed every day. Conditions: in vivo, po. The class given is organism-based.
Another data set concerns HeLa. Nature of the data set: Cytotoxic activity against human HeLa cells incubated for 48 hrs by MTT assay. The class given is functional, cell-based.
Data set [13] concerns Mus musculus. As to the kind of experiment: Toxicity in nude mouse xenografted with human A549 cells assessed as change in body weight at 6 mg/kg, ig dosed every day (reference value: 25.9 g). The format is organism-based. Conditions: in vivo, po.
Data set [14] deals with A549. As to the kind of experiment: Antitumor activity against human A549 cells xenografted in nude mouse assessed as tumor growth inhibition at 12 mg/kg, ig dosed every day. The class given is functional. As to conditions: A549, po, read-out: TGI.
Data set [15] deals with Mus musculus. As to the kind of experiment: Toxicity in ip dosed nude mouse assessed as induction of mouse fatality. The format is organism-based. As to conditions: in vivo.
Data set [16] has as its system Mus musculus. As to the kind of experiment: Toxicity in nude mouse xenografted with human A549 cells assessed as change in body weight at 12 mg/kg, ig dosed every day (reference value: 26.5 g). The format is organism-based. As to conditions: in vivo, po.

The IC50 is the point on the concentration scale where inhibition reaches its midpoint. The low end stands for inhibition by little substance, the high end for a need for much substance. As to `CC1=C(OC(=O)N2CCN(C)CC2)C(=O)C=C2C1=CC=C1[C@@]2(C)CC[C@@]2(C)[C@@H]3C[C@](C)(C(=O)OCc4ccccc4)CC[C@]3(C)CC[C@]12C`, the “fold change (FC)” value in the data set on A549 [1] is listed as 0.76; in the data set with A549 [9], 0.55; in the data set on A549 [11], 0.63. Further, the TGI result in the data set on A549 [2] is “Dose-dependent effect”. In addition, the Activity entry is “Non-Toxic” in the data set on Mus musculus [3]; 26.9 g in the data set with Mus musculus [5]; 26.5 g in the data set on Mus musculus [6]; “Non-Toxic” in the data set with Mus musculus [8]; “Non-Toxic” in the data set on Mus musculus [12]; 27 g with Mus musculus [13]. For the same compound, the inhibition in vivo at 6 mg/kg in the data set with A549 [4] came to 57.5%. Further, the inhibition in vivo at 3 mg/kg with A549 [7] was found to be 46.1%. Also, the IC50 in the data set with A549 [10] was determined as 5180 nM; with HepG2, 2610 nM; with Bel-7402 it was 1020 nM; in the data set on SGC-7901 it was 1280 nM; in the data set with HeLa it was 2310 nM. Moreover, in the data set with A549 [14], the inhibition in vivo at 12 mg/kg came to 71%.

For `CC1=C(O)C(=O)C=C2C1=CC=C1[C@@]2(C)CC[C@@]2(C)[C@@H]3C[C@](C)(C(=O)O)CC[C@]3(C)CC[C@]12C` [CELASTROL], the Activity entry in the data set with Mus musculus [15] was “Toxic”; in the data set with Mus musculus [8], “Toxic”; with Mus musculus [16] it was 25.5 g. The “fold change (FC)” value with A549 [9] was found to be 0.84. The IC50 was 2120 nM in the data set with A549 [10]; 580 nM in the data set on HepG2; 440 nM in the data set with Bel-7402; 870 nM in the data set with SGC-7901; 840 nM in the data set with HeLa. The inhibition in vivo at 12 mg/kg in the data set with A549 [14] stood at 62%.

In the case of `CC1=C(O)C(=O)C=C2C1=CC=C1[C@@]2(C)CC[C@@]2(C)[C@@H]3C[C@](C)(C(=O)OC(C)C)CC[C@]3(C)CC[C@]12C`, the IC50 in the data set on A549 [10] amounted to 3410 nM; in the data set on HepG2, 320 nM; in the data set with Bel-7402, 430 nM; with SGC-7901, 470 nM; in the data set with HeLa, 1750 nM.

Regarding `CCN1CCN(C(=O)OC2=C(C)C3=CC=C4[C@@](C)(CC[C@@]5(C)[C@@H]6C[C@](C)(C(=O)OCc7ccccc7)CC[C@]6(C)CC[C@]45C)C3=CC2=O)CC1`, the IC50 turned out to be 5910 nM with A549 [10]; 4610 nM in the data set on HepG2; 2440 nM in the data set on Bel-7402; 2880 nM in the data set on SGC-7901; 1590 nM in the data set with HeLa.

For the compound `CC1=C(O)C(=O)C=C2C1=CC=C1[C@@]2(C)CC[C@@]2(C)[C@@H]3C[C@](C)(C(=O)OCc4ccccc4)CC[C@]3(C)CC[C@]12C`, the IC50 in the data set with A549 [10] was 2330 nM; in the data set on HepG2, 800 nM; in the data set on Bel-7402, 200 nM; in the data set with SGC-7901 it was 310 nM; in the data set on HeLa, 460 nM.

Consider `CC1=C(O)C(=O)C=C2C1=CC=C1[C@@]2(C)CC[C@@]2(C)[C@@H]3C[C@](C)(C(=O)OCc4cccc(Cl)c4)CC[C@]3(C)CC[C@]12C`, for which the half-maximal inhibitory concentration (IC50) in the data set on A549 [10] stood at 3250 nM; in the data set on HepG2, 870 nM; in the data set with Bel-7402 it was 370 nM; in the data set on SGC-7901 it was 310 nM; with HeLa, 420 nM.

These data come from ChEMBL document CHEMBL4033734, “Synthesis of 3- and 29-substituted celastrol derivatives and structure-activity relationship studies of their cytotoxic activities” (Bioorg Med Chem Lett, 2017).
